The target of this test is T1, human PTH-1 receptor (Homo sapiens, UniProt Q03431).
T1 construct: expressed in transfected cells; host or cells: HEK-293
T1 sequence (Q03431 27-593): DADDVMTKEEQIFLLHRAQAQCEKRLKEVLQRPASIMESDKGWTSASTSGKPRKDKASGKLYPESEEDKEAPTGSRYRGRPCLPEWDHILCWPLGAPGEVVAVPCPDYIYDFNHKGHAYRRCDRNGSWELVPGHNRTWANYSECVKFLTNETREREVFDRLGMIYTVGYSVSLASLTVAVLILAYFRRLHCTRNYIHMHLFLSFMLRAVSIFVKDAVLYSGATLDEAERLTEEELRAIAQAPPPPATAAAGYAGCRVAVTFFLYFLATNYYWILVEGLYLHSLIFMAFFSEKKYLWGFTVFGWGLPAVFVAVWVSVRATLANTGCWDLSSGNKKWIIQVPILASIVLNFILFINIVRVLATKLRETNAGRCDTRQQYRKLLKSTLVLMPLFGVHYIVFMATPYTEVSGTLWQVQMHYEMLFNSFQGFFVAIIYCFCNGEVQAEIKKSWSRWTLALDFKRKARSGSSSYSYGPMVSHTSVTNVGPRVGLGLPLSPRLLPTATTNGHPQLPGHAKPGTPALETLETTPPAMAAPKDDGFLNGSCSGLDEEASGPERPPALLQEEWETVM
The experiment in a line: Reporter gene assay (CRE-luciferase) for agonist activity in transiently transfected HEK-293 cells. The format is cell-based. As to conditions: for hPTHR-2/hPTHR-1: ratio of EC50 values, selectivity for hPTH-1 receptor over hPTH-2 receptor. The method, then:
Agonist activity of compounds on the human PTH-1 receptor was determined in a reporter gene assay by transiently transfecting HEK-293 cells with plasmids encoding human PTH-1 receptor under control of the SV40 promoter and a luciferase reporter gene under control of cAMP responsive elements (CRE). See Himmler et al, J. Recept. Res. 13 (1993) 79-94, for further guidance on this assay. Transfected cells were exposed to serial dilutions of compounds for 4-5 hours followed by lysis of cells, determination of luciferase activity, and determination of compound efficacies and EC50 values through non-linear regression.
PTH (1-34) was used as an internal control in each experiment and compounds were tested in at least three independent experiments. To determine selectivity, compounds were tested in luciferase-based transcriptional reporter gene assays expressing the human PTH-2 receptor.
On the technique in general: A reporter such as luciferase makes a cellular process visible.

Read-outs that look alike come from different tables or passages of the source. Non-standard residues stand in square brackets, D forms with d. Residues, ends and D or L forms follow the SMILES beside them. 1Nal = N[C@@H](Cc1cccc2ccccc12)C(=O)O; β3hI = CC[C@H](C)[C@H](N)CC(=O)O; β3hE = N[C@@H](CCC(=O)O)CC(=O)O; Nle = CCCC[C@H](N)C(=O)O; Aib = CC(C)(N)C(=O)O

For orientation: EC50 means the concentration at which the effect is half-maximal. `CCCC[C@H](NC(=O)[C@H](CC(C)C)NC(=O)[C@H](CCC(N)=O)NC(=O)[C@@H](NC(=O)[C@H](CCC(=O)O)NC(=O)[C@H](CO)NC(=O)[C@@H](NC(=O)C(C)(C)N)C(C)C)[C@@H](C)CC)C(=O)N[C@@H](Cc1c[nH]cn1)C(=O)N[C@@H](CCC(=O)O)C(=O)N[C@@H](CC(C)C)C(=O)NCC(=O)N[C@@H](CCCCN)C(=O)N[C@@H](Cc1c[nH]cn1)C(=O)N[C@@H](CC(C)C)C(=O)N[C@@H](CCCCN)C(=O)N[C@@H](CO)C(=O)N[C@H](CC(=O)N[C@@H](CCC(=O)O)C(=O)N[C@@H](CCCNC(=N)N)C(=O)N[C@H](C(=O)N[C@@H](CCC(=O)O)C(=O)N[C@@H](Cc1cccc2ccccc12)C(=O)N[C@@H](CC(C)C)C(=O)N[C@@H](CCCNC(=N)N)C(=O)N[C@@H](CCCCN)C(=O)N[C@@H](CC(C)C)C(=O)N[C@@H](CC(C)C)C(=O)N[C@@H](CCC(N)=O)C(=O)N[C@@H](CCC(=O)O)C(=O)N[C@H](C(=O)N[C@@H](Cc1c[nH]cn1)C(=O)N[C@@H](CCC(=O)O)C(=O)N[C@@H](CCCCN)C(N)=O)C(C)C)C(C)C)[C@@H](C)CC` [SEQ ID NO: 50, [Aib^1, Nle^8, Glu^10, Lys^16, β-hIle^18,1-Nal^23, Leu^27, Glu^30, Glu^33, Lys^34] hPTH(1-34)-NH2] (H-[Aib]VSEIQL[Nle]HELGKHLKS[β3hI]ERVE[1Nal]LRKLLQEVHEK-NH2; N-terminus assumed) displayed an EC50 of 0.04 nM. Also, the hPTHR-2/hPTHR-1 (Table 3) worked out at 22.
`CCCC[C@H](NC(=O)[C@H](CC(C)C)NC(=O)[C@H](CCC(N)=O)NC(=O)[C@@H](NC(=O)[C@H](CCC(=O)O)NC(=O)[C@H](CO)NC(=O)[C@@H](NC(=O)[C@@H](N)CO)C(C)C)[C@@H](C)CC)C(=O)N[C@@H](Cc1c[nH]cn1)C(=O)N[C@@H](CC(N)=O)C(=O)N[C@@H](CC(C)C)C(=O)NCC(=O)N[C@@H](CCCCN)C(=O)N[C@@H](Cc1c[nH]cn1)C(=O)N[C@@H](CC(C)C)C(=O)N[C@@H](CC(N)=O)C(=O)N[C@@H](CO)C(=O)N[C@H](CC(=O)N[C@@H](CCC(=O)O)C(=O)N[C@@H](CCCNC(=N)N)C(=O)N[C@H](C(=O)N[C@@H](CCC(=O)O)C(=O)N[C@@H](Cc1cccc2ccccc12)C(=O)N[C@@H](CC(C)C)C(=O)N[C@@H](CCCNC(=N)N)C(=O)N[C@@H](CCCCN)C(=O)N[C@@H](CCCCN)C(=O)N[C@@H](CC(C)C)C(=O)N[C@@H](CCC(N)=O)C(=O)N[C@@H](CC(=O)O)C(=O)N[C@H](C(=O)N[C@@H](Cc1c[nH]cn1)C(=O)N[C@@H](CC(N)=O)C(=O)N[C@@H](Cc1ccccc1)C(=O)O)C(C)C)C(C)C)[C@@H](C)CC` [SEQ ID NO: 8, [Nle^8, β-hIle^18,1-Nal^23] hPTH (1-34)-OH] (H-SVSEIQL[Nle]HNLGKHLNS[β3hI]ERVE[1Nal]LRKKLQDVHNF-OH): where the note is “Table 3, HEK-293 cells, CRE-luciferase, 4-5 hours exposure, read-out: hPTHR-1 EC50”, the EC50 came out at 0.21 nM. Besides, the hPTHR-2/hPTHR-1 (Table 3) worked out at 124.
For the molecule `CCCC[C@H](NC(=O)[C@H](CO)NC(=O)[C@H](CC(N)=O)NC(=O)[C@H](CC(C)C)NC(=O)[C@H](Cc1c[nH]cn1)NC(=O)[C@H](CCCCN)NC(=O)CNC(=O)[C@H](CC(C)C)NC(=O)[C@H](CC(N)=O)NC(=O)[C@H](Cc1c[nH]cn1)NC(=O)[C@H](CCCC)NC(=O)[C@H](CC(C)C)NC(=O)[C@H](CCC(N)=O)NC(=O)[C@@H](NC(=O)[C@H](CCC(=O)O)NC(=O)[C@H](CO)NC(=O)[C@@H](NC(=O)[C@@H](N)CO)C(C)C)[C@@H](C)CC)C(=O)N[C@@H](CCC(=O)O)CC(=O)N[C@@H](CCCNC(=N)N)C(=O)N[C@H](C(=O)N[C@@H](CCC(=O)O)C(=O)N[C@@H](Cc1cccc2ccccc12)C(=O)N[C@@H](CC(C)C)C(=O)N[C@@H](CCCNC(=N)N)C(=O)N[C@@H](CCCCN)C(=O)N[C@@H](CC(C)C)C(=O)N[C@@H](CC(C)C)C(=O)N[C@@H](CCC(N)=O)C(=O)N[C@@H](CC(=O)O)C(=O)N[C@H](C(=O)N[C@@H](Cc1c[nH]cn1)C(=O)N[C@@H](CC(N)=O)C(=O)N[C@@H](Cc1ccccc1)C(N)=O)C(C)C)C(C)C` [SEQ ID NO: 20, [Nle^8,18, β-hGlu^19,1-Nal^23, Leu^27] hPTH (1-34)-NH2] (H-SVSEIQL[Nle]HNLGKHLNS[Nle][β3hE]RVE[1Nal]LRKLLQDVHNF-NH2; N-terminus assumed), the hPTHR-2/hPTHR-1 (Table 3) is 91.
